Test results reported in US20110064680A1, “NATURALLY DERIVED WATERPROOFING AGENTS FOR AQUEOUS-BASED PERSONAL CARE PRODUCTS” (Pinova, Inc., priority 2009, published 2011).

Assay: Solubility of solid sunscreen actives in the hydrogenated wood resins
Assay type: physicochemical
Conditions: solvent: hydrogenated wood resins
From the text: During the making of the sunscreens, it was observed that the systems containing the hydrogenated wood resins more easily solubilzed the solid sunscreens (Oxybenzone and Avobenzone). […]

solubility of these actives in the hydrogenated wood resins [%] | SMILES
13 | COc1ccc(C(=O)CC(=O)c2ccc(C(C)(C)C)cc2)cc1 [Avobenzone]
24 | COc1ccc(C(=O)c2ccccc2)c(O)c1 [Oxybenzone]
